These results are taken from ChEMBL document CHEMBL1133508, “Syntheses and antimalarial activities of 10-substituted deoxoartemisinins” (2000).

Experiment [1] concerns Plasmodium falciparum. In words: In vitro relative activity against chloroquine-sensitive, mefloquine-resistant Plasmodium falciparum D6. Type of experiment: functional.
Experiment [2] deals with Plasmodium falciparum. Nature of the experiment: In vitro activity against chloroquine-resistant, mefloquine-sensitive Plasmodium falciparum W2. Type of experiment: functional.

`C[C@H]1[C@@H](C2C=CC(=O)O2)O[C@@H]2O[C@]3(C)CC[C@H]4[C@H](C)CC[C@@H]1[C@@]24OO3` (some centres not stated): the values for the Relative activity with Plasmodium falciparum [1] and with Plasmodium falciparum [2] were 0.77 and 0.18, respectively.
Regarding `C[C@H]1[C@@H](C[C@@H](O)C(F)(F)F)O[C@@H]2OC3(C)CC[C@H]4[C@H](C)CC[C@@H]1[C@@]24OO3` (single isomer, unassigned), the Relative activity with Plasmodium falciparum [1] was 3.1; in the experiment on Plasmodium falciparum [2], 2.4.
The like results for `C[C@H]1[C@@H](C[C@@H](O)C(C)(C)C)O[C@@H]2OC3(C)CC[C@H]4[C@H](C)CC[C@@H]1[C@@]24OO3` (single isomer, unassigned) were, in that order, 1.6 and 1.
With `CC(C)[C@H](O)C[C@H]1O[C@@H]2OC3(C)CC[C@H]4[C@H](C)CC[C@@H]([C@H]1C)[C@@]24OO3` (single isomer, unassigned), the Relative activity is on record as 1.4 in the experiment with Plasmodium falciparum [1] and 2.3 in the experiment with Plasmodium falciparum [2].
For `CC[C@H](O)C[C@H]1O[C@@H]2OC3(C)CC[C@H]4[C@H](C)CC[C@@H]([C@H]1C)[C@@]24OO3` (single isomer, unassigned), the Relative activity in the experiment with Plasmodium falciparum [1] is reported as 2.2; with Plasmodium falciparum [2], 3.6.
As to `C[C@H]1[C@@H](C[C@H](C)O)O[C@@H]2OC3(C)CC[C@H]4[C@H](C)CC[C@@H]1[C@@]24OO3` (single isomer, unassigned), the Relative activity with Plasmodium falciparum [1] worked out at 0.98; in the experiment on Plasmodium falciparum [2] it was 1.
For `C[C@H]1[C@@H](C[C@H](O)C(F)(F)F)O[C@@H]2OC3(C)CC[C@H]4[C@H](C)CC[C@@H]1[C@@]24OO3` (single isomer, unassigned) the same measures were 2.5 and 3.1.
In the case of `C[C@H]1[C@@H](C[C@@H](C)O)O[C@@H]2OC3(C)CC[C@H]4[C@H](C)CC[C@@H]1[C@@]24OO3` (single isomer, unassigned), the Relative activity in the experiment on Plasmodium falciparum [1] and with Plasmodium falciparum [2] was 1.7 each time.
Turning to `CC(C)[C@@H](O)C[C@H]1O[C@@H]2OC3(C)CC[C@H]4[C@H](C)CC[C@@H]([C@H]1C)[C@@]24OO3` (single isomer, unassigned), the Relative activity came to 2.2 in the experiment on Plasmodium falciparum [1] and 1.7 in the experiment with Plasmodium falciparum [2].
Take `CC[C@@H](O)C[C@H]1O[C@@H]2OC3(C)CC[C@H]4[C@H](C)CC[C@@H]([C@H]1C)[C@@]24OO3` (single isomer, unassigned): the values for the Relative activity in the experiment with Plasmodium falciparum [1] and in the experiment with Plasmodium falciparum [2] were 5.8 and 4.8, respectively.
The like results for `C[C@H]1[C@@H](C[C@H](O)C(C)(C)C)O[C@@H]2OC3(C)CC[C@H]4[C@H](C)CC[C@@H]1[C@@]24OO3` (single isomer, unassigned) were, in that order, 6.8 and 5.4.
Take `C[C@H]1[C@@H](CC=O)O[C@@H]2OC3(C)CC[C@H]4[C@H](C)CC[C@@H]1[C@@]24OO3` (single isomer, unassigned): the values for the Relative activity in the experiment on Plasmodium falciparum [1] and in the experiment with Plasmodium falciparum [2] were 3.5 and 1.8, respectively.
For `C[C@H]1[C@@H](CC(=O)c2ccccc2)O[C@@H]2OC3(C)CC[C@H]4[C@H](C)CC[C@@H]1[C@@]24OO3` (single isomer, unassigned), the Relative activity in the experiment with Plasmodium falciparum [1] was 0.16; in the experiment with Plasmodium falciparum [2], 2.5.
For `C[C@H]1[C@@H](C2CCCC(=O)O2)O[C@@H]2OC3(C)CC[C@H]4[C@H](C)CC[C@@H]1[C@@]24OO3` (single isomer, unassigned) the same measures were 1.4 and 2.2.
Take `CCC(=O)C[C@H]1O[C@@H]2OC3(C)CC[C@H]4[C@H](C)CC[C@@H]([C@H]1C)[C@@]24OO3` (single isomer, unassigned): the Relative activity with Plasmodium falciparum [1] is given as 1; in the experiment on Plasmodium falciparum [2], 1.3.
For `CCOC(=O)/C=C/C[C@H]1O[C@@H]2OC3(C)CC[C@H]4[C@H](C)CC[C@@H]([C@H]1C)[C@@]24OO3` (single isomer, unassigned) the same measures were 1.1 and 1.4.
For `CC(C)C(=O)C[C@H]1O[C@@H]2OC3(C)CC[C@H]4[C@H](C)CC[C@@H]([C@H]1C)[C@@]24OO3` (single isomer, unassigned) the same measures were 1.8 and 2.1.
For `C[C@H]1[C@@H](CC(=O)C(C)(C)C)O[C@@H]2OC3(C)CC[C@H]4[C@H](C)CC[C@@H]1[C@@]24OO3` (single isomer, unassigned) the same measures were 1.6 and 2.1.
Regarding `C[C@H]1[C@@H](C#N)O[C@@H]2OC3(C)CC[C@H]4[C@H](C)CC[C@@H]1[C@@]24OO3` (single isomer, unassigned), the Relative activity in the experiment on Plasmodium falciparum [1] is 1.5; in the experiment with Plasmodium falciparum [2], 1.1.
Turning to `C[C@H]1[C@@H](C2CCCC2=O)O[C@@H]2OC3(C)CC[C@H]4[C@H](C)CC[C@@H]1[C@@]24OO3` (single isomer, unassigned), the Relative activity was 0.91 in the experiment on Plasmodium falciparum [1] and 1.6 in the experiment with Plasmodium falciparum [2].
Take `CC(=O)C[C@H]1O[C@@H]2OC3(C)CC[C@H]4[C@H](C)CC[C@@H]([C@H]1C)[C@@]24OO3` (single isomer, unassigned): the figures for the Relative activity in the experiment on Plasmodium falciparum [1] and in the experiment on Plasmodium falciparum [2] were 2.6 and 1.7, respectively.
